Experimental data as given in patent US4370266A, “Mycoplanecin derivatives and their preparation” (Sankyo Company, Limited, priority 1980, dated 1983).
Converted amounts (≈) assume the structure as drawn. Read-outs that look alike come from different tables or passages of the source. Numbered stars: 1 amine (or outer) side, 2 acyl side, 3 side chain; on linkers, the order of the positions; unused ones are H or OH. Bridge positions count the residues as written; N and C are the ends. Square brackets hold non-standard residues; d marks the D form. Peptide text beside a SMILES is read from it. * marks the point of attachment. ξ: configuration not given here. X1 = CCC1CC(C(=O)[*:2])N([*:1])C1; Butanoyl(2-oxo) = CCC(=O)C(=O)*; NMeAhp(2) = CCCCC[CH](NC)C(=O)O; ξPro(4ξ-Me) = CC1CNC(C(=O)O)C1; NMeT = CN[CH](C(=O)O)[CH](C)O; NMeL = CN[CH](CC(C)C)C(=O)O; hLeu = CC(C)CC[CH](N)C(=O)O; NMeV = CN[CH](C(=O)O)C(C)C; X2 = CCC(O)C(=O)*

How the values were obtained:
[1] = test system: microorganisms of the genus Mycobacterium; conditions: earlier applications on Mycoplanecin A; cited from earlier work
[2] = test system: Mycobacterium smegmatis ATCC 607; assay: Minimal inhibitory concentration (MIC), Mycobacterium smegmatis ATCC 607; conditions: Mycolicibacterium smegmatis, ATCC607, 168 h
[3] = test system: Bacillus subtilis PCI 219; assay: MIC, Bacillus subtilis PCI 219; conditions: PCI219, 24 h
[4] = test system: Candida albicans Yu 1200; assay: MIC, Candida albicans Yu 1200; assay type: cell-based
[5] = test system: Xanthomonas oryzae SANK 70274; assay: microbe, parasite or virus in culture; assay type: cell-based; conditions: SANK70274, 72 h
[6] = test system: Klebsiella pneumoniae PCI 602; assay: MIC, Klebsiella pneumoniae PCI 602; conditions: PCI602, 24 h
[7] = test system: Pseudomonas aeruginosa SANK 73860; assay: MIC, Pseudomonas aeruginosa SANK 73860; conditions: SANK73860, 24 h
[8] = test system: Micrococcus luteus; assay: MIC, Micrococcus luteus; conditions: 24 h
[9] = test system: Proteus vulgaris OX19; assay: MIC, Proteus vulgaris OX19; conditions: OX19, 24 h
[10] = test system: Piricularia oryzae SANK 16975; assay: microbe, parasite or virus in culture; assay type: cell-based; conditions: 48 h
[11] = test system: Aspergillus oryzae SANK 11262; assay: MIC, Aspergillus oryzae SANK 11262; assay type: cell-based
[12] = test system: Proteus mirabilis 1331; assay: MIC, Proteus mirabilis 1331; conditions: Proteus mirabilis, 1331, 24 h
[13] = Solubility; conditions: for Solubility: soluble in: organic solvents; for Solubility: insoluble in: water and, where named, other solvents
[14] = test system: Penicillium chrysogenum SANK 12768; assay: MIC, Penicillium chrysogenum SANK 12768; assay type: cell-based
[15] = test system: Escherichia coli NIHJ JC-2; assay: MIC, Escherichia coli NIHJ JC-2; conditions: NIHJJC2, 24 h
[16] = test system: Staphylococcus aureus 209P JC-1; assay: MIC, Staphylococcus aureus 209P JC-1; conditions: 24 h
[17] = test system: Trichophyton mentagrophytes SANK 22374; assay: MIC, Trichophyton mentagrophytes SANK 22374; assay type: cell-based

**Q.** With `CCC(=O)C(=O)N(C)C(C(=O)N1CC(CC)CC1C(=O)N(C)C1C(=O)NC(CC(C)C)C(=O)N2CC(C)CC2C(=O)NC(CCC(C)C)C(=O)N(C)C(C(C)C)C(=O)N2CCCC2C(=O)N(C)C(CC(C)C)C(=O)NCC(=O)OC1C)C(C)C` (stereo not drawn) [Mycoplanecin A] ({Butanoyl(2-oxo)}-[NMeV][X1][NMeT]L[ξPro(4ξ-Me)][hLeu][NMeV]P[NMeL]G; ester 3-C; configuration not given here) as the molecule, how does the antibacterial activity [1] read?
**A.** antibacterial activity, especially against microorganisms of the genus Mycobacterium

**Q.** For `CCC(O)C(=O)N(C)C(C(=O)N1CC(C)CC1C(=O)N(C)C1C(=O)NC(CC(C)C)C(=O)N2CC(C)CC2C(=O)NC(CCC(C)C)C(=O)N(C)C(C(C)C)C(=O)N2CCCC2C(=O)N(C)C(CC(C)C)C(=O)NCC(=O)OC1C)C(C)C` (stereo not drawn) [Compound (IIa)], which MIC [2] is on record?
**A.** 0.05 µg/mL (≈ 0.0427 µM)

**Q.** With `CC(C)CCC1NC(=O)C2CC(C)CN2C(=O)C(CC(C)C)NC(=O)C(N(C)C(=O)C2CC(C)CN2)C(C)OC(=O)CNC(=O)C(CC(C)C)N(C)C(=O)C2CCCN2C(=O)C(C(C)C)N(C)C1=O` (stereo not drawn) [Compound (IIb)] as the molecule, how does the MIC [2] read?
**A.** 6.25 µg/mL (≈ 6.43 µM)

**Q.** For `CCCCCC1C(=O)NCC(=O)OC(C)C(N(C)C(=O)C2CC(CC)CN2)C(=O)NC(CC(C)C)C(=O)N2CC(C)CC2C(=O)NC(CCC(C)C)C(=O)N(C)C(C(C)C)C(=O)N2CCCC2C(=O)N1C` (stereo not drawn) [Compound (IIIb)] (H-[X1][NMeT]L[ξPro(4ξ-Me)][hLeu][NMeV]P[NMeAhp(2)]G; ester 2-C; configuration not given here), which MIC [2] is on record?
**A.** 6.25 µg/mL (≈ 6.25 µM)

**Q.** With `CCC(=O)C(=O)N(C)C(C(=O)N1CC(C)CC1C(=O)N(C)C1C(=O)NC(CC(C)C)C(=O)N2CC(C)CC2C(=O)NC(CCC(C)C)C(=O)N(C)C(C(C)C)C(=O)N2CCCC2C(=O)N(C)C(CC(C)C)C(=O)NCC(=O)OC1C)C(C)C` (stereo not drawn) [Mycoplanecin B] as the molecule, how does the MIC [3] read?
**A.** > 400 µg/mL

**Q.** What about the MIC ([4]; YU1200, 48 h) of the same molecule?
**A.** > 400 µg/mL

**Q.** And the MIC ([5]; read-out: MIC)?
**A.** 12.5 µg/mL (≈ 10.7 µM)

**Q.** What about the MIC [6] of the same molecule?
**A.** > 400 µg/mL

**Q.** And the MIC [7]?
**A.** > 400 µg/mL

**Q.** What about the MIC [8] of the same molecule?
**A.** 0.0125 µg/mL (≈ 0.0107 µM)

**Q.** What about the MIC [9] of the same molecule?
**A.** > 400 µg/mL

**Q.** What about the MIC [10] of the same molecule?
**A.** > 400 µg/mL

**Q.** And the MIC [2]?
**A.** 0.05 µg/mL (≈ 0.0428 µM)

**Q.** And the MIC ([11]; SANK11262, 48 h)?
**A.** > 400 µg/mL

**Q.** And the MIC [12]?
**A.** > 400 µg/mL

**Q.** And the “Solubility: soluble in” value [13]?
**A.** Soluble in methanol, ethanol, ethyl acetate, acetone and chloroform

**Q.** And the “Solubility: insoluble in” value [13]?
**A.** Insoluble in water

**Q.** And the MIC ([14]; SANK12768, 48 h)?
**A.** > 400 µg/mL

**Q.** What about the MIC [15] of the same molecule?
**A.** > 400 µg/mL

**Q.** And the MIC [16]?
**A.** > 400 µg/mL

**Q.** And the MIC ([17]; SANK22374, 48 h)?
**A.** > 400 µg/mL

**Q.** For `CCCCCC1C(=O)NCC(=O)OC(C)C(N(C)C(=O)C2CC(CC)CN2C(=O)C(C(C)C)N(C)C(=O)C(O)CC)C(=O)NC(CC(C)C)C(=O)N2CC(C)CC2C(=O)NC(CCC(C)C)C(=O)N(C)C(C(C)C)C(=O)N2CCCC2C(=O)N1C` (stereo not drawn) [Compound (IIIa)] (X2-[NMeV][X1][NMeT]L[ξPro(4ξ-Me)][hLeu][NMeV]P[NMeAhp(2)]G; ester 3-C; configuration not given here), which MIC [2] is on record?
**A.** 0.05 µg/mL (≈ 0.0417 µM)

**Q.** With `CCCCCC1C(=O)NCC(=O)OC(C)C(N(C)C(=O)C2CC(CC)CN2C(=O)C(C(C)C)N(C)C(=O)C(=O)CC)C(=O)NC(CC(C)C)C(=O)N2CC(C)CC2C(=O)NC(CCC(C)C)C(=O)N(C)C(C(C)C)C(=O)N2CCCC2C(=O)N1C` (stereo not drawn) [Mycoplanecin C] ({Butanoyl(2-oxo)}-[NMeV][X1][NMeT]L[ξPro(4ξ-Me)][hLeu][NMeV]P[NMeAhp(2)]G; ester 3-C; configuration not given here) as the molecule, how does the MIC [3] read?
**A.** > 400 µg/mL

**Q.** What about the MIC ([4]; YU1200, medium S: 48 hours at 26° C. in Sabouraud's agar, read-out: MIC) of the same molecule?
**A.** > 400 µg/mL

**Q.** And the MIC [5]?
**A.** 12.5 µg/mL (≈ 10.4 µM)

**Q.** And the MIC [6]?
**A.** > 400 µg/mL

**Q.** What about the MIC [7] of the same molecule?
**A.** > 400 µg/mL

**Q.** What about the MIC [8] of the same molecule?
**A.** 0.0125 µg/mL (≈ 0.0104 µM)

**Q.** And the MIC [9]?
**A.** > 400 µg/mL

**Q.** What about the MIC [10] of the same molecule?
**A.** > 400 µg/mL

**Q.** What about the MIC [2] of the same molecule?
**A.** 0.05 µg/mL (≈ 0.0418 µM)

**Q.** And the MIC ([11]; SANK11262, medium S: 48 hours at 26° C. in Sabouraud's agar, read-out: MIC)?
**A.** > 400 µg/mL

**Q.** What about the MIC [12] of the same molecule?
**A.** > 400 µg/mL

**Q.** And the “Solubility: soluble in” value [13]?
**A.** Soluble in methanol, ethanol, ethyl acetate, acetone and chloroform

**Q.** What about the “Solubility: insoluble in” value [13] of the same molecule?
**A.** Insoluble in water

**Q.** What about the MIC ([14]; SANK12768, medium S: 48 hours at 26° C. in Sabouraud's agar, read-out: MIC) of the same molecule?
**A.** > 400 µg/mL

**Q.** What about the MIC [15] of the same molecule?
**A.** > 400 µg/mL

**Q.** What about the MIC [16] of the same molecule?
**A.** > 400 µg/mL

**Q.** And the MIC ([17]; SANK22374, medium S: 48 hours at 26° C. in Sabouraud's agar, read-out: MIC)?
**A.** > 400 µg/mL
